Reference: ChEMBL document CHEMBL1201862, “PubChem BioAssay data set” (2004)
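Cultured in 96-well plates, cells were exposed to test compound for 48 hours across five concentrations. Abbreviation: GI50, concentration required for 50% inhibition of growth.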 Calls of active or inactive are those of the source. Rule as the data show it: active = GI50 up to about 1.1 µM and inactive = higher.

Legend:
Assay in all cases: NCI anticancer screen, dose series, 48 h
786-0 = tested on: 786-0
A498 = tested on: A498
A549 = tested on: A549
ACHN = tested on: ACHN
CAKI-1 = tested on: CAKI-1
CCRF-CEM = tested on: CCRF-CEM
DU-145 = tested on: DU-145
EKVX = tested on: EKVX
HCC 2998 = tested on: HCC 2998
HCT-116 = tested on: HCT-116
HCT-15 = tested on: HCT-15
HL-60 = tested on: HL-60
HOP-62 = tested on: HOP-62
HOP-92 = tested on: HOP-92
HT-29 = tested on: HT-29
Hs-578T = tested on: Hs-578T
IGROV-1 = tested on: IGROV-1
K562 = tested on: K562
LOX IMVI = tested on: LOX IMVI
M14 = tested on: M14
MCF7 = tested on: MCF7
MDA-MB-231 = tested on: MDA-MB-231
MDA-MB-435 = tested on: MDA-MB-435
MDA-N = tested on: MDA-N
MOLT-4 = tested on: MOLT-4
Malme-3M = tested on: Malme-3M
NCI-H23 = tested on: NCI-H23
NCI-H460 = tested on: NCI-H460
NCI-H522 = tested on: NCI-H522
NCI/ADR-RES = tested on: NCI/ADR-RES
OVCAR-3 = tested on: OVCAR-3
OVCAR-4 = tested on: OVCAR-4
OVCAR-5 = tested on: OVCAR-5
OVCAR-8 = tested on: OVCAR-8
PC-3 = tested on: PC-3
RPMI-8226 = tested on: RPMI-8226
RXF 393 = tested on: RXF 393
SF-268 = tested on: SF-268
SF-295 = tested on: SF-295
SF-539 = tested on: SF-539
SK-MEL-28 = tested on: SK-MEL-28
SK-MEL-2 = tested on: SK-MEL-2
SK-MEL-5 = tested on: SK-MEL-5
SK-OV-3 = tested on: SK-OV-3
SNB-19 = tested on: SNB-19
SNB-75 = tested on: SNB-75
SR = tested on: SR
SW-620 = tested on: SW-620
T47D = tested on: T47D
TK-10 = tested on: TK-10
U-251 = tested on: U-251
UACC-257 = tested on: UACC-257
UO-31 = tested on: UO-31

`CC(=O)c1c2c(cc3c1CC1(Cc4cc5c(cc4C1)CCC5)C3)CCC2` was tested, and the GI50 (786-0) was > 100 µM (inactive), the GI50 (A498) was > 100 µM (inactive) and the GI50 (A549) was > 100 µM (inactive). For the same molecule, the GI50 (ACHN) was > 100 µM (inactive), the GI50 (CAKI-1) was > 100 µM (inactive) and the GI50 (CCRF-CEM) was > 100 µM (inactive). For the same molecule, the GI50 (DU-145) was > 100 µM (inactive), the GI50 (EKVX) was > 100 µM (inactive) and the GI50 (HCC 2998) was > 100 µM (inactive). The GI50 (HCT-116) was 75 µM (inactive), the GI50 (HCT-15) was > 100 µM and the GI50 (HL-60) was > 100 µM (inactive). For the same molecule, the GI50 (HOP-62) was > 100 µM (inactive), the GI50 (HOP-92) was > 100 µM (inactive) and the GI50 (HT-29) was 78.2 µM (inactive). The GI50 (Hs-578T) was > 100 µM (inactive), the GI50 (IGROV-1) was > 100 µM (inactive) and the GI50 (K562) was > 100 µM (inactive). For the same molecule, the GI50 (LOX IMVI) was > 100 µM (inactive), the GI50 (M14) was > 100 µM (inactive) and the GI50 (MCF7) was > 100 µM (inactive). The GI50 (MDA-MB-231) was > 100 µM (inactive), the GI50 (MDA-MB-435) was > 100 µM (inactive) and the GI50 (MDA-N) was > 100 µM (inactive). The GI50 (MOLT-4) was > 100 µM (inactive), the GI50 (Malme-3M) was > 100 µM (inactive) and the GI50 (NCI-H23) was > 100 µM (inactive). For the same molecule, the GI50 (NCI-H460) was > 100 µM (inactive), the GI50 (NCI-H522) was > 100 µM (inactive) and the GI50 (NCI/ADR-RES) was > 100 µM (inactive). The GI50 (OVCAR-3) was > 100 µM (inactive), the GI50 (OVCAR-4) was > 100 µM (inactive) and the GI50 (OVCAR-5) was > 100 µM (inactive). The GI50 (OVCAR-8) was > 100 µM (inactive), the GI50 (PC-3) was > 100 µM (inactive) and the GI50 (RPMI-8226) was > 100 µM (inactive). For the same molecule, the GI50 (RXF 393) was > 100 µM (inactive), the GI50 (SF-268) was > 100 µM (inactive) and the GI50 (SF-295) was > 100 µM (inactive). The GI50 (SF-539) was > 100 µM (inactive), the GI50 (SK-MEL-28) was > 100 µM (inactive) and the GI50 (SK-MEL-2) was > 100 µM (inactive). The GI50 (SK-MEL-5) was > 100 µM (inactive), the GI50 (SK-OV-3) was > 100 µM (inactive) and the GI50 (SNB-19) was > 100 µM (inactive). For the same molecule, the GI50 (SNB-75) was > 100 µM (inactive), the GI50 (SR) was > 100 µM (inactive) and the GI50 (SW-620) was > 100 µM (inactive). For the same molecule, the GI50 (T47D) was > 100 µM (inactive), the GI50 (TK-10) was > 100 µM (inactive) and the GI50 (U-251) was > 100 µM (inactive). For the same molecule, the GI50 (UACC-257) was 63.8 µM (inactive) and the GI50 (UO-31) was > 100 µM (inactive).
